# Literature values in patent publication US5008256A, “Salts of ranitidine and complexes of bismuth with carboxylic acids, and pharmaceutical compositions thereof” (Glaxo Group Limited, priority 1988, dated 1991).
# Experiments:
# histamine H2 receptor = settings: background; in words
# Campylobacter pylori = settings: background; in words
Compound,histamine H2-antagonist activity (histamine H2 receptor),susceptibility of Campylobacter pylori (Campylobacter pylori)
"CNC(=C[N+](=O)[O-])NCCSCc1ccc(CN(C)C)o1 [Ranitidine, N-[2-[[[5-[(dimethylamino)-methyl]-2-furanyl]methyl]thio]ethyl]-N'-methyl-2-nitro-1,1-ethenediamine]",potent histamine H2 -antagonist,
"O=C([O-])CC(O)(CC(=O)[O-])C(=O)[O-].O=C([O-])CC(O)(CC(=O)[O-])C(=O)[O-].[Bi+3].[K+].[K+].[K+] [bismuth subcitrate, tripotassium dicitrato bismuthate]",,susceptible
